Measurements: patent publication US6265588A, “Isoxazole and crotonamide derivatives and their use as pharmaceuticals and diagnostics” (Aventis Pharma Deutschland GmbH, priority 1997, dated 2001)
Structures can show the parent of a compound that is named as a salt. Values belong to the molecule of their own block, whether it stands above or below them.

Tests used:
[1] = test system: RAW 264.7 cells; assay: Comparative affinity chromatography of LPS-stimulated, leflunomide-treated RAW 264.7 cytosol extracts; assay type: cell-based; details: RAW 264.7, 10 ng LPS/ml plus 60 μM A 77 1726B, 24 hours; FRACTOGEL column derivatized according to Example 10
Text: The stimulation of the macrophage cell line RAW 264.7 with lipopolysaccharide was used as an in vitro model for inflammatory processes. Lipopolysaccharide ("LPS") is an essential structural constituent of the outer membrane of Gram-negative bacteria and is recognized as such by immune cells of almost all organisms. In particular, macrophages are activated by LPS stimulation to synthesize a number of cytokines such as TNF-α, IL-1 and IL-6. Potential changes in the protein pattern which accompany this stimulation should be prevented by the simultaneous administration of the immunoregulatory preparation leflunomide.
RAW 264.7 cells were incubated with 10 ng of LPS/ml of culture medium for 24 hours. In the case of LPS-stimulated, leflunomide-treated cells, incubation was simultaneously carried out with 60 μM A 77 1726B for 24 hours. The cells were processed and the cytosolic extracts investigated by affinity chromatography with the aid of the FRACTOGEL® column derivatized according to Example 10. The preparation fractions of these three batches were then applied to an analytical gradient gel and compared with one another.

[2] = test system: EL 4; assay: Proliferation test, cell line EL 4; assay type: cell-based; details: Mus musculus, EL4; cell line EL 4, 72 h, tritium-thymidine incorporation; read-out: concentrations at which a 50% inhibition occurs, EL 4
Experimental: (§1) Clicks/RPMI 1640 medium (50:50) with L-glutamine and without NaHCO3 in powder form for 10 l (Seromed, Biochrom, Berlin, FRG), is dissolved in 9 l of double-distilled water and sterile-filtered into bottles each containing 900 ml.
(§2) For keeping tumor cells and hybridoma cells, use medium containing 5% FCS is prepared.
(§3) For keeping cell lines, 900 ml of use medium containing 10% FCS, 10 ml of NEA (non-essential amino acids) solution (Gibco), 10 ml of sodium pyruvate solution (100 mM, Gibco) and 5 ml of 10^-2 M mercaptoethanol are mixed.
(§4) The tumor cells or cell lines used in the test are taken from the stock solution in the logarithmic growth phase, washed twice with wash medium and suspended in the appropriate medium.
(§5) The proliferation test is carried out in round-bottom microtiter plates. Compounds of the formula I and interleukins are dissolved in 50 μl each/hollow of the appropriate medium and the cell count (5×10^5) is adjusted with 100 μl/hollow so that a final volume of 200 μl/hollow results. In all tests, the values are determined four times. Cells without preparations and without growth factor are defined as a negative control and cells without preparation with growth factor afford the values for the positive control. The value of the negative control is subtracted from all values determined and the difference of positive control minus negative control is set at 100%.
(§6) The microtiter plates are incubated at 37° C./5% CO2 for 72 h and the proliferation rate is determined correspondingly as in mitogen-induced lymphocyte proliferation. The cell lines were obtained from the strain collection, American Type Culture Collection ("ATCC").

[3] = test system: K562; assay: Proliferation test, cell line K562; assay type: cell-based; details: Homo sapiens; cell line K562, 72 h, tritium-thymidine incorporation; read-out: concentrations at which a 50% inhibition occurs, K562
Experimental: as §1, §2, §3, §4
as §5, with “Cells without preparations and without growth factor are defined as a negative control and cells without preparation with growth factor afford the values for the positive control.” left out
The microtiter plates are incubated at 37° C./5% CO2 for 72 h and the proliferation rate is determined correspondingly as in mitogen-induced lymphocyte proliferation. […]

[4] = test system: A20.2.J; assay: Proliferation test, cell line A20.2.J; assay type: cell-based; details: 72 h, tritium-thymidine incorporation, read-out: concentrations at which a 50% inhibition occurs, A20.2.J
Experimental: as §1, §2, §3, §4, §5, §6

[5] = test system: dehydrogenases; assay: BIAcore comparison of relative binding strengths of the dehydrogenases; details: protein concentration of 1 μM; compound immobilised on CM5 chip
Experimental: (§7) The analysis was carried out essentially as described in Current Biology, Vol. 3, No. 12, pages 913-915 (1993).
(§8) System: BIAcore® 2000 with corresponding software, Pharmacia Biosensor AB, Uppsala, Sweden
(§9) Chip: CM5 sensor chip, Pharmacia Biosensor AB
(§10) Coating: according to Example 8
(§11) Running buffer: HBS buffer, BIA certified, Pharmacia Biosensor AB
(§12) Injection: 5 min association phase per 50 μl of the sample to be analyzed.
(§13) Rinsing time: 180 sec 3 min dissociation phase
(§14) Regeneration: 2×15 sec using 0.05% sodium dodecylsulfate
The relative binding strengths of the dehydrogenases investigated were compared with one another at a defined protein concentration.

[6] = biological target: T1, Chicken serum albumin (Gallus gallus, UniProt P19121); assay: BIAcore binding of serum albumin to chip coated with compound of Example 2; details: compound immobilised on CM5 chip according to Example 8
T1 sequence (P19121 24-615): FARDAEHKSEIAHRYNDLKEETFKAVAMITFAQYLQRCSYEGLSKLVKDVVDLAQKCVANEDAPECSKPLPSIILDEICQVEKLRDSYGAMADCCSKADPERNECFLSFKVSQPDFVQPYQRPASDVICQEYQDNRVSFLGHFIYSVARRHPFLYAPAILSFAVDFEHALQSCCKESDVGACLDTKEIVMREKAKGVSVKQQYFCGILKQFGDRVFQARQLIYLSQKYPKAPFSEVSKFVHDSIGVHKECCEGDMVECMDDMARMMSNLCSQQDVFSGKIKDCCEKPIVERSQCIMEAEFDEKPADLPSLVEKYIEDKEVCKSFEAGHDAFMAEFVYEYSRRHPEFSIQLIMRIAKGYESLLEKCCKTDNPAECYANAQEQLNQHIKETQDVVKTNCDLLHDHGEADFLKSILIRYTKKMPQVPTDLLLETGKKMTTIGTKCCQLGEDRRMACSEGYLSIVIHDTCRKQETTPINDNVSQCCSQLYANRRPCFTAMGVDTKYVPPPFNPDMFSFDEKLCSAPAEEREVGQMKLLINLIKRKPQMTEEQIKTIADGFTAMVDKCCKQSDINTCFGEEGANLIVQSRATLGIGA
Experimental: (§15) The starting material is a CM5 chip from Pharmacia Biosensor having a carboxymethyldextran surface (BIApplication Handbook, Ed. 1994, Merck AB, Uppsala, Sweden). The coupling steps are all carried out at a flow rate of 5 μl/min. All steps are carried out at 25° C. using Hepes buffered saline ("HBS") pH 7.4 as the running buffer.
(§16) 1st step: 35 μl of a 1:1 mixture of 0.05 M NHS (N-hydroxysuccinimide) and 0.2 M EDC (N-ethyl-N'-(dimethylaminopropyl)carbodiimide) in order to activate the chip surface.
(§17) 2nd step: 35 μl of a 40 mM cystamine dihydrochloride solution in 0.1 M sodium borate buffer pH 8.5.
(§18) 3rd step: 35 μl of ethanolamine hydrochloride pH 8.5 to saturate unoccupied matrix structures.
(§19) 4th step: 35 μl of 0.1 M dithiothreitol in 0.1 M sodium borate buffer pH 8.5.
(§20) 5th step: 35 μl of a solution containing compound according to Example 2 (10 mg/ml) in 0.1 M sodium borate buffer pH 7.5.
as §7, §8, §9, §10, §11, §12, §13, §14
(§21) The term "Resonance Units" is a quantitative unit which is proportional to the amount of protein bound.

[7] = biological target: Human serum albumin (Homo sapiens, UniProt P02768); assay: as above; details: compound immobilised on CM5 chip according to Example 8
Experimental: as §15, §16, §17, §18, §19, §20, §7, §8, §9, §10, §11, §12, §13, §14, §21

[8] = biological target: Mouse serum albumin (Mus musculus, UniProt P07724); assay: as above; details: compound immobilised on CM5 chip according to Example 8
Experimental: as §15, §16, §17, §18, §19, §20, §7, §8, §9, §10, §11, §12, §13, §14, §21

[9] = biological target: Sheep serum albumin (Ovis aries, UniProt P14639); assay: as above; details: compound immobilised on CM5 chip according to Example 8
Experimental: as §15, §16, §17, §18, §19, §20, §7, §8, §9, §10, §11, §12, §13, §14, §21

[10] = biological target: Donkey serum albumin (Equus asinus, UniProt Q5XLE4); assay: as above; details: compound immobilised on CM5 chip according to Example 8
Experimental: as §15, §16, §17, §18, §19, §20, §7, §8, §9, §10, §11, §12, §13, §14, §21

[11] = biological target: Bovine serum albumin (Bos taurus, UniProt P02769); assay: as above; details: compound immobilised on CM5 chip according to Example 8
Experimental: as §15, §16, §17, §18, §19, §20, §7, §8, §9, §10, §11, §12, §13, §14, §21

[12] = biological target: Rat serum albumin (Rattus norvegicus, UniProt P02770); assay: as above; details: compound immobilised on CM5 chip according to Example 8
Experimental: as §15, §16, §17, §18, §19, §20, §7, §8, §9, §10, §11, §12, §13, §14, §21

[13] = biological target: Glyceraldehyde phosphate DH (Homo sapiens, UniProt P04406); assay: BIAcore binding of dehydrogenases to chip coated with compound of Example 2; details: compound immobilised on CM5 chip
Experimental: as §15, §16, §17, §18, §19, §20, §7, §8, §9, §10, §11, §12, §13, §14, §21
(§22) DH represents the enzyme designation dehydrogenase

[14] = biological target: Dihydroorotate DH (Homo sapiens, UniProt Q02127); assay: as above; details: compound immobilised on CM5 chip
Experimental: as §15, §16, §17, §18, §19, §20, §7, §8, §9, §10, §11, §12, §13, §14, §21, §22

[15] = test system: Pyruvate kinase DH; assay: as above; details: compound immobilised on CM5 chip
Experimental: as §15, §16, §17, §18, §19, §20, §7, §8, §9, §10, §11, §12, §13, §14, §21, §22

Chain of Glyceraldehyde phosphate DH (P04406 whole entry): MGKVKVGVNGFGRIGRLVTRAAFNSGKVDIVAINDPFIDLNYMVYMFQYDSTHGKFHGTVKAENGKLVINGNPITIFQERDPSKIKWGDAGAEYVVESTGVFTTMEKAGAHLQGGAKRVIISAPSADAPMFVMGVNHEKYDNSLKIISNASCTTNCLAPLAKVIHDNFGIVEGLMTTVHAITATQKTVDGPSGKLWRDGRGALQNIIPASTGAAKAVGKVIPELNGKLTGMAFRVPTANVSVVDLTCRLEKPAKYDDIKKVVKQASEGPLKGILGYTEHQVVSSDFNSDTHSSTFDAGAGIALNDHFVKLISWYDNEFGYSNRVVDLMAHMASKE
Chain of Dihydroorotate DH (Q02127 whole entry): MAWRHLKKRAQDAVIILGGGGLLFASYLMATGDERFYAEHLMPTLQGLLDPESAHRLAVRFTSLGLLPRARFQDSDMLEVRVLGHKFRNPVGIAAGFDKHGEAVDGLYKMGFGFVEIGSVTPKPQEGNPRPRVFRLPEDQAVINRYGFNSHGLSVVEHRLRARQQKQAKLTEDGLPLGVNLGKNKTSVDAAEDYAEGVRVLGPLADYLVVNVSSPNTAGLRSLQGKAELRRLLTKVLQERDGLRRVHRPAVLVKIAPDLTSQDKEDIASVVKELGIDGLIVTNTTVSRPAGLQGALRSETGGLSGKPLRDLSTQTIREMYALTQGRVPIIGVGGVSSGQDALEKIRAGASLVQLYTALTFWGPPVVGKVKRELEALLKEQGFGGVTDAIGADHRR
Chain of Sheep serum albumin (P14639 25-607): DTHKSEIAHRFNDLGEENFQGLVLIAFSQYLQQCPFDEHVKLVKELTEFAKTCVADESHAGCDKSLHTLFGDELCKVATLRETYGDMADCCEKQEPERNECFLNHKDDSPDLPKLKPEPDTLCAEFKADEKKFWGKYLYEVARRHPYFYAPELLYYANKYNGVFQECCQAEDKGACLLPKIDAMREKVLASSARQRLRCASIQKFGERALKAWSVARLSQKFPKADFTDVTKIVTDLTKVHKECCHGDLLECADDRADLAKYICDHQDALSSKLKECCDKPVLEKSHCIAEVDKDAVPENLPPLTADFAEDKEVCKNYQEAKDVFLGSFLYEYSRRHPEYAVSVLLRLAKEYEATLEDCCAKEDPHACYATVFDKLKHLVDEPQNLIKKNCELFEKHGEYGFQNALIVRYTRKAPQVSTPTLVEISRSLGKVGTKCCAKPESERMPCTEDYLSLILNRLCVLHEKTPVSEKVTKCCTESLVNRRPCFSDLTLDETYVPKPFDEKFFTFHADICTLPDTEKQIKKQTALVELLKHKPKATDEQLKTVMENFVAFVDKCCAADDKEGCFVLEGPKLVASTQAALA
Chain of Human serum albumin (P02768 25-609): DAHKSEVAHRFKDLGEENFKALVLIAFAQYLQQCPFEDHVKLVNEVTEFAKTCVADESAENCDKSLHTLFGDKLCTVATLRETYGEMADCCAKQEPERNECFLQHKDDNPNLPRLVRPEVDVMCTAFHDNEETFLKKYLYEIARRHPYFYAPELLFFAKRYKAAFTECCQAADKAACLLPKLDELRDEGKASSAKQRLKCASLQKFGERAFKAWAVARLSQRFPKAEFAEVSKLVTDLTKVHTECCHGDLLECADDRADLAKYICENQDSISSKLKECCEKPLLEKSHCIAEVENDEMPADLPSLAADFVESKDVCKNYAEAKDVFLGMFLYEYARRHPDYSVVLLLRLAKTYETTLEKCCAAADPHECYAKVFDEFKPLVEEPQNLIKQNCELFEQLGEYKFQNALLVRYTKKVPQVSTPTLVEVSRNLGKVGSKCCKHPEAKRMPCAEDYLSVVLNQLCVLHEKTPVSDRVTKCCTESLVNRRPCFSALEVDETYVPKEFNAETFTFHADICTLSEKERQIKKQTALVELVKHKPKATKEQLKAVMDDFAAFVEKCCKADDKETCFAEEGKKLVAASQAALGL
Chain of Mouse serum albumin (P07724 25-608): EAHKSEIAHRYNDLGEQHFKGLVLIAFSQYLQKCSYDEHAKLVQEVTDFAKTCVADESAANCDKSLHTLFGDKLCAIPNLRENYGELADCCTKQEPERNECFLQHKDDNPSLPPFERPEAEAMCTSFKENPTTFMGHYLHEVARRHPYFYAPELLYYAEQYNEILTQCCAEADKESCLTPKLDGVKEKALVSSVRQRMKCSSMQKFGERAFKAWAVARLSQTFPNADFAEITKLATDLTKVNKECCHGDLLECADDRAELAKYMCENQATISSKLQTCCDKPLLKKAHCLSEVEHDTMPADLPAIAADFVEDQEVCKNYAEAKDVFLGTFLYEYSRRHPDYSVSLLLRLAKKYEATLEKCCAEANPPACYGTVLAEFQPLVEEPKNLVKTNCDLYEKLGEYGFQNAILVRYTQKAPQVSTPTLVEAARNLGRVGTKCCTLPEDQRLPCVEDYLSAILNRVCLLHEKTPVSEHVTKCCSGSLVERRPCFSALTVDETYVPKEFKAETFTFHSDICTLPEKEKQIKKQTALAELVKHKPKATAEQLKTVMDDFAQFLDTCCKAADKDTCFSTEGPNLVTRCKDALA
Chain of Bovine serum albumin (P02769 25-607): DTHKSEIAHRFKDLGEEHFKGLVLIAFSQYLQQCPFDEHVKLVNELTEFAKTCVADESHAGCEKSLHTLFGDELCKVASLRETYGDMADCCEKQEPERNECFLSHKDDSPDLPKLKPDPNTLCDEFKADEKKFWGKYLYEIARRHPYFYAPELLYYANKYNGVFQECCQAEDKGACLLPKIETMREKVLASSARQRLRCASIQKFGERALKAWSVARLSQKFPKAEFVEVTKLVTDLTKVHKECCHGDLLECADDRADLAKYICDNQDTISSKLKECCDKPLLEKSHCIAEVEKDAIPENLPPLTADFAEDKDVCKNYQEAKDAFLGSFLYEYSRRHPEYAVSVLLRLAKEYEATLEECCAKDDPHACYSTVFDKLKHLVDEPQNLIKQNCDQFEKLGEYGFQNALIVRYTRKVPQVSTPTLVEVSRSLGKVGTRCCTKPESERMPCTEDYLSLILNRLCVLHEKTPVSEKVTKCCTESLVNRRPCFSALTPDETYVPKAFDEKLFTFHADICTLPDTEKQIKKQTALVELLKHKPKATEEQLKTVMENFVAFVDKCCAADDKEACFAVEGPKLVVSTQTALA
Chain of Donkey serum albumin (Q5XLE4 25-607): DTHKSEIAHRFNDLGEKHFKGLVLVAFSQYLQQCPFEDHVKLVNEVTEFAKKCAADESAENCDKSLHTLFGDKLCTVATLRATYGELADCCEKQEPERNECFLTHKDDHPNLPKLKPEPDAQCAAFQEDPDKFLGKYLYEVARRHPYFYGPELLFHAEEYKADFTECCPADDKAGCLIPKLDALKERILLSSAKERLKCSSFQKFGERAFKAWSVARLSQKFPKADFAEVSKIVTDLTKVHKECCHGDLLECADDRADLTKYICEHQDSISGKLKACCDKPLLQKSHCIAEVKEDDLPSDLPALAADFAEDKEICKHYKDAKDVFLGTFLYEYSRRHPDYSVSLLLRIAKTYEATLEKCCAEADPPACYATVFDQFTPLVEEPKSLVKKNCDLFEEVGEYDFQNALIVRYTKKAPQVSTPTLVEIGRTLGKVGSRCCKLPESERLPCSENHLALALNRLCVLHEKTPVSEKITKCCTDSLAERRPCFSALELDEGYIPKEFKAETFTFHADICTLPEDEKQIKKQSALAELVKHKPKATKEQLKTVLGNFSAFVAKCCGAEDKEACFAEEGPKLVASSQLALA
Chain of Rat serum albumin (P02770 25-608): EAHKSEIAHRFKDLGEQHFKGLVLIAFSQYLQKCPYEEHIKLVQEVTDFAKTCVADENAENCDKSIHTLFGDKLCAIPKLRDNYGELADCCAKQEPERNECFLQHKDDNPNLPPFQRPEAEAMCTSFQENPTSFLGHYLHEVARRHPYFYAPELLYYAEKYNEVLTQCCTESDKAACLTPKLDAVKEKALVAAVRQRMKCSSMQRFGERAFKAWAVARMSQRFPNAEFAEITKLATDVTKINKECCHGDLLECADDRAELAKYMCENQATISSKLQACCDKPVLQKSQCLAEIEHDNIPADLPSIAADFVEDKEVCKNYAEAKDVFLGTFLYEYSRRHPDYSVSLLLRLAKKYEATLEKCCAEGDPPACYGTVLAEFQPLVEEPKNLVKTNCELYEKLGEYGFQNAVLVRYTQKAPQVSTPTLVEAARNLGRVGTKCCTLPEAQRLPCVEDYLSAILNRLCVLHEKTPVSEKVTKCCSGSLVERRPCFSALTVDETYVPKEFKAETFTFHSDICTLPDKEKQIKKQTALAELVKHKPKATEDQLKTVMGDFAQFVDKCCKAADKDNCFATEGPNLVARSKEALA

Compound: CC(O)=C(C#N)C(=O)Nc1ccc(C(F)(F)F)cc1 [A 77 1726B, sodium salt of N-(4-trifluoromethylphenyl)-2-cyano-3-hydroxycrotonamide]
intensity of band around 35 kDa (malate dehydrogenase) in the preparation fraction [1]: markedly increased

IC50 [3]: 50 µM
Compound: Cc1oncc1C(=O)Nc1ccc(NC(=O)CBr)cc1 [Example 1, 5-Methylisoxazole4-carboxylic acid (4-(2-bromoacetylamino)phenyl)amide]
IC50 [2]: 0.8 µM | IC50 [4]: 0.8 µM

IC50 [3]: 20 µM | Resonance Units, binding of serum albumin [6]: 8 Resonance Units | Resonance Units, binding of serum albumin [7]: 294 Resonance Units | Resonance Units, binding of serum albumin [8]: 151 Resonance Units | Resonance Units, binding of serum albumin [9]: 331 Resonance Units | Resonance Units, binding of serum albumin [10]: 480 Resonance Units | Resonance Units, binding of serum albumin [11]: 50 Resonance Units | Resonance Units, binding of serum albumin [12]: 1061 Resonance Units | Resonance Units, binding of Glyceraldehyde phosphate DH ([13]; enzyme 25 nM): 69 Resonance Units | Resonance Units, binding of Glyceraldehyde phosphate DH ([13]; enzyme 50 nM): 148 Resonance Units | Resonance Units, binding of Glyceraldehyde phosphate DH ([13]; enzyme 100 nM): 297 Resonance Units | Resonance Units, binding of Glyceraldehyde phosphate DH ([13]; enzyme 250 nM): 603 Resonance Units | Resonance Units, binding of Dihydroorotate DH ([14]; enzyme 50 nM): 203 Resonance Units | Resonance Units, binding of Dihydroorotate DH ([14]; enzyme 100 nM): 425 Resonance Units | Resonance Units, binding of Dihydroorotate DH ([14]; enzyme 250 nM): 1064 Resonance Units | Resonance Units, binding of Pyruvate kinase DH ([15]; enzyme 50 nM): 85 Resonance Units | Resonance Units, binding of Pyruvate kinase DH ([15]; enzyme 100 nM): 189 Resonance Units | Resonance Units, binding of Pyruvate kinase DH ([15]; enzyme 250 nM): 505 Resonance Units
Compound: CC(O)=C(C#N)C(=O)Nc1ccc(NC(=O)CBr)cc1 [Example 2]
relative binding strengths of the dehydrogenases [5]: the binding of the dihydroorotate DH was the strongest, followed by lactate DH, glyceraldehyde phosphate DH and pyruvate kinase | IC50 [2]: 6 µM | IC50 [4]: 15 µM

Compound: CC(O)=C(C#N)C(=O)Nc1ccc(OCCCI)cc1 [Example 5, 2-Cyano-3-hydroxybut-2-enecarboxylic acid (4-(3-iodopropoxy)phenyl)amide]
IC50 [2]: 25 µM | IC50 [4]: 50 µM
